# Patent US9827229B2, “Small molecule securinine and norsecurinine analogs and their use in cancers, inflammatory diseases and infections” (INVENIO THERAPEUTICS INC., priority 2013, dated 2017)
# Where two headings read alike, the source gives them in different places.
# Test system: HL60 cells
# Test: Growth of HL60 cells (IC50)
# Type: cell-based, human
# Conditions: no unit in head or cell (other cells of the column print uM)
# Experimental: The analogs were then tested and evaluated on the ability to affect differentiation and growth of HL60 cells.
# [1] = Homo sapiens, HL-60, HL-60 cells, growth, read-out: HL-60, IC50
# [2] = Homo sapiens, HL-60, read-out: HL-60, IC50, HL-60 cells, growth
SMILES,IC50 [1] [µM],other results
CS(=O)(=O)NCC#CC1=CC2CC3(OC(=O)C=C13)C1CCCCN21 (stereo not shown) [INV-SZ-137-1],0.07 to 0.15,–
COc1cc(C#CC2=C[C@@H]3C[C@@]4(OC(=O)C=C24)[C@H]2CC[C@H](C(OC)OC)N32)cc(OC)c1 [INVS-MG-222B],< 0.03,–
O=CC1CCC2N1C1C=CC3=CC(=O)OC32C1 (stereo not shown) [INV-SZ-132-1],1.25 to 2.5,–
COC(OC)C1CCC2N1C1C=C(C#Cc3ccc[n+]([O-])c3)C3=CC(=O)OC32C1 (stereo not shown) [INV-SZ-115-1],0.15 to 0.31,–
O=C1C=C2C=CC3CC2(O1)C1CCC(CO)N31 (stereo not shown) [INV-SZ-132-2],0.3 to 0.6,–
COC(OC)[C@H]1CC[C@H]2N1[C@@H]1C=C(I)C3=CC(=O)O[C@@]32C1 [INVS-MG-99B = 52B],–,IC50 [2]: 0.156 to 0.31 µM
O=C1C=C2C(C#Cc3cccc[n+]3[O-])=CC3CC2(O1)C1CCCCN31 (stereo not shown) [INV-SZ-116-1],2.5 to 5,–
O=C1C=C2C3C=CCC2(O1)C1CCCCN1O3 (stereo not shown) [INV-SZ-125-1],< 5,–
COc1cccc(C#CC2=C[C@@H]3C[C@@]4(OC(=O)C=C24)[C@H]2CC[C@H](C(OC)OC)N32)c1 [INVS-MG-221B],0.625 to 1.25,–
O=C1C=C2C(C#Cc3ccc([N+](=O)[O-])cc3)=C[C@@H]3C[C@@]2(O1)[C@H]1CCCCN31 [INVS-MG-176B],0.31 to 0.625,–
CN(C)c1ccc(C#CC2=C[C@@H]3C[C@@]4(OC(=O)C=C24)[C@H]2CCCCN32)cc1 [INVS-MG-146-IV],–,IC50 [2]: 0.07 to 0.156 µM
O=C1C=C2C(C#Cc3ccc[n+]([O-])c3)=CC3CC2(O1)C1CCCCN31 (stereo not shown) [INV-SZ-113-2],0.15 to 0.31,–
COC(OC)[C@H]1CC[C@H]2N1[C@@H]1C=CC3=CC(=O)O[C@@]32C1 [INVS-MG-99D = 52D],–,IC50 [2]: 0.31 to 0.625 µM
CNCC#CC1=CC2CC3(OC(=O)C=C13)C1CCCCN21 (stereo not shown) [INV-SZ-129-1],2.5 to 5,–
O=C1C=C2C(C#CCc3ccccc3)=C[C@@H]3C[C@@]2(O1)[C@H]1CCCCN31 [INVS-MG-108-IIB],0.31 to 0.625,–
O=C1C=C2C(C#CCSc3ccccc3)=C[C@@H]3C[C@@]2(O1)[C@H]1CCCCN31 [INVS-MG-147B],0.625 to 1.25,–

SMILES,IC50 [1] [µM],other results
CCCN(CC#CC1=C[C@@H]2C[C@@]3(OC(=O)C=C13)[C@H]1CCCCN21)CCC [INVS-MG-152-III],–,"IC50 (HL-60 cells, growth, read-out: HL-60, IC50): < 0.03 µM"
O=C1C=C2C(C#CCCCCl)=C[C@@H]3C[C@@]2(O1)[C@H]1CCCCN31 [INVS-MG-119A],0.625 to 1.25,–
COC(OC)[C@H]1CC[C@H]2N1[C@@H]1C=C(I)C3=CC(=O)O[C@@]32C1 [INVS-MG-99-IVB-I],–,IC50 [2]: 0.31 to 0.625 µM
CCCCN(CC#CC1=C[C@@H]2C[C@@]3(OC(=O)C=C13)[C@H]1CCCCN21)CCCC [INVS-MG-179B],0.156 to 0.31,–
O=C1C=C2C(/C=C(\C#CCCCCl)CCCCl)=C[C@@H]3C[C@@]2(O1)[C@H]1CCCCN31 [INVS-MG-119B],1.25 to 2.5,–
COC(OC)[C@H]1CC[C@H]2N1[C@@H]1C=C(C#Cc3ccc(N)cc3)C3=CC(=O)O[C@@]32C1 [INVS-MG-219A],0.625 to 1.25,–
O=C1C=C2C(C#Cc3ccc(-c4ccccc4)cc3)=C[C@@H]3C[C@@]2(O1)[C@H]1CCCCN31 [INVS-MG-169-III],0.07 to 0.156,–
CCN(CC)CC#CC1=C[C@@H]2C[C@@]3(OC(=O)C=C13)[C@H]1CCCCN21 [INVS-MG-145-V],–,IC50 [2]: 0.07 to 0.156 µM
O=C1C=C2C(I)=C[C@@H]3C[C@@]2(O1)[C@H]1CCCCN31 [INVS-MG-84],–,"IC50 (read-out: HL-60, IC50, HL-60 cells, growth): > 2.5 µM"
[N-]=[N+]=Nc1ccc(C#CC2=C[C@@H]3C[C@@]4(OC(=O)C=C24)[C@H]2CCCCN32)cc1 [INVS-MG-193-III],0.156 to 0.31,–
O=C1C=C2C(C#CCO)=CC3CC2(O1)C1CCCCN31 (stereo not shown) [INV-SZ-133-1],1.25 to 2.5,–
C[Si](C)(C)C#CC1=C[C@@H]2C[C@@]3(OC(=O)C=C13)[C@H]1CCCCN21 [INVS-MG-207-IIIA],–,IC50 [2]: 1.25 to 2.5 µM
COc1ccc(C#CC2=C[C@@H]3C[C@@]4(OC(=O)C=C24)[C@H]2CC[C@H](C(OC)OC)N32)cc1OC [INVS-MG-223B],0.156 to 0.31,–
COC(OC)[C@H]1CC[C@H]2N1[C@@H]1C=C(C#Cc3cc4ccccc4c4ccccc34)C3=CC(=O)O[C@@]32C1 [INVS-MG-220B],–,IC50 [2]: 0.156 µM
O=C1C=C2C=CC3CC2(O1)C1CCCCN1O3 (stereo not shown) [INV-SZ-125-2],< 5,–
